Results reported in US20130039904A1, “GAMBOGIC ACID CYCLIZATION ANALOGUES, THEIR PREPARATION METHOD AND APPLICATION THEREOF” (Liaoning Lifeng Scientific & Technology Development Company …, priority 2009, published 2013).
pIC50: −log10 of the molar value. In brackets after ≈: the same amount, converted by molar mass. Like-named read-outs stand apart in the source and are kept apart here.

Experiments:
[1] = Body weight of S180 sarcoma-bearing mice; conditions: iv
Procedure: (§1) Test animals: Kunming kinds of healthy mice (19-21 g), 10 mice (5 male and 5 female)/group, from Beijing Institute of Military Medical Sciences Animal Center.
(§2) Xenografts cultured S180 tumor cells were implanted subcutaneously into the flank region of mice and tumors were allowed to grow to the desired average size of 100 mg. The mice were randomized into control and treatment groups with 10 mice per group. The control group was injected with the vehicle used to dissolve the drug. Other groups received the test compounds (example compound 5, 9, 10, 11, 13, 18, 19, 22, 24, 35, 306 and positive group, cyclophosphamide (CTX) and 5-fluorouracil (5-FU)) at the dose and schedule as indicated in Table VI. Injections were I.V. via the tail vein.

[2] = tested on: mice sarcoma S180; experiment: Growth inhibition of S180 sarcoma in mice; assay type: in vivo, Kunming mice; design: Inhibition rate (%): concentration or dose not given beside the values; conditions: for Tumor weight / Inhibition rate (%): S180 sarcoma, Kunming mice, iv; for Inhibition rate (%): *P<0.01, **p<0.001 vs control; for anti-tumor efficacy, statistical significance: S180 sarcoma in mice, in words
Procedure: as §1
Tumor strains: mice sarcoma S180 for ascites passaged from Beijing Academy of Military Medical Institute of Pharmacology.
as §2

[3] = tested on: Human pancreatic cancer cell line Panc-1; experiment: In vitro anti-cancer cell experiment (MTT), Panc-1; assay type: cell-based; conditions: for anti-proliferative effect on Panc-1: Panc-1, in words
Procedure: (§3) a. Cell lines: Human pancreatic cancer cell line Panc-1, human colorectal cancer cell line HT29 and human lung cancer cell line NCI—H460; the medium: s DMEM (Gibco BRL), containing 10% fetal calf serum (Gibco BRL) and 2 mM L-glutamine (Gibco BRL).
(§4) b. Test samples: example compounds 5, 9, 10, 22 and 24. The samples were dissolved in dimethyl sulfoxide (DMSO, Sigma, United States) and medium was added to the final concentration of 0.5%. Cisplatin was as positive control of (CDDP, purity 96%, from Kunming Institute of Precious Metals).
(§5) c. Method: cells were digested with trypsin and dispersed into single cells in the medium containing penicillin (25 U/ml) and streptomycin (25 μg/ml). The cells were seeded in 96-well culture plates (Corning Incorporated), at 37° C., in a humidified atmosphere with 5% CO2 present for 24 hours. The culture medium was removed, […] test compounds were added, cultured for 48 hours. Culture medium was removed and […] (MTT, USA Sigma products) was added. The result was assayed by SK601-based microplate reader (Japan Seikagaku company's products), 570 nm/630 nm optical density (OD).
(§6) Calculation of cell viability: (Experimental group OD/control OD)×100%; Positive control CDDP was treated in the same way.

[4] = tested on: human colorectal cancer cell line HT29; experiment: In vitro anti-cancer cell experiment (MTT), HT29; assay type: cell-based; conditions: for anti-proliferative effect on HT29: HT29, in words; for IC50: Homo sapiens, HT-29
Procedure: as §3, §4, §5, §6

[5] = tested on: human lung cancer cell line NCI-H460; experiment: In vitro anti-cancer cell experiment (MTT), NCI-H460; assay type: cell-based; conditions: for pIC50: NCI-H460 cells, 48 hours, MTT, read-out: IC50 NCI-H460; for IC50: NCI-H460, text value, P<0.05, read-out: IC50 (anti-proliferative effect on NCI-H460)
Procedure: as §3, §4, §5, §6

[6] = HT29 cells, 48 hours, MTT, read-out: IC50 HT29
[7] = HT29, text value, P<0.05, read-out: IC50 (anti-proliferative effect on HT29)

Row | Compound | IC50 [4, 6] [µg/mL] | pIC50 [5] | IC50 [4, 7] [µg/mL] | IC50 [5] [µg/mL] | IC50 ([3]; Homo sapiens, Panc-1, text value, P<0.05, read-out: IC50 (anti-proliferative effect on Panc-1)) [µg/mL] | body Weight (g) After ad. ([1]; after administration, S180 mice) [g] | body Weight (g) Before ad. ([1]; before administration, S180 mice) [g] | Tumor weight [2] [g] | Inhibition rate (%) [2] | body Weight (g) After ad. ([1]; mouse, in vivo) [g] | body Weight (g) Before ad. ([1]; mouse, in vivo) [g] | anti-tumor efficacy, statistical significance [2] | anti-proliferative effect on Panc-1 [3] | anti-proliferative effect on HT29 [4]
1 | O=P1(N(CCCl)CCCl)NCCCO1 (stereo not shown) [CTX, cyclophosphamide, reference compound] |  |  |  |  |  | 26.32 ± 3.58 | 21.48 ± 1.60 | 1.02 ± 0.88 | 46.5* % |  |  |  |  | 
2 | COC(=O)/C(C)=C\CC12OC(C)(C)C3CC(C1=O)C1C4=C(c5ccccc5C4=O)N4CCNC45c4c(O)c6c(c(CC=C(C)C)c4OC32C15)OC(C)(CCC=C(C)C)C=C6 (stereo not shown) [Compound 306] |  |  |  |  |  |  |  | 1.29 ± 0.49 | 36.77* % | 26.98 ± 3.02 | 20.75 ± 1.33 |  |  | 
3 | COC(=O)/C(C)=C\CC12OC(C)(C)C3CC(C1=O)C1C4=C(Nc5nccn51)c1c(O[C@H]5O[C@@H](CO)[C@H](O)[C@@H](O)[C@@H]5O)c5c(c(CC=C(C)C)c1OC432)OC(C)(CCC=C(C)C)C=C5 (stereo partly shown) [Compound 24] | 54.1 (≈ 62.2 µM) | 7.86 |  |  |  |  |  | 0.65 ± 0.37 | 62.87** % | 27.61 ± 2.89 | 20.71 ± 1.75 | statistically significant | showed anti-proliferative effect | showed anti-proliferative effect
4 | COC(=O)/C(C)=C\CC12OC(C)(C)C3CC(C1=O)C1C4=C(Nc5ncnn51)c1c(O)c5c(c(CC=C(C)C)c1OC432)OC(C)(CCC=C(C)C)C=C5 (stereo not shown) [Compound 18] |  |  |  |  |  |  |  | 1.42 ± 0.52 | 25.26% | 27.37 ± 3.92 | 20.16 ± 0.90 |  |  | 
5 | COC(=O)/C(C)=C\CC12OC(C)(C)C3CC(C1=O)C1C4=C(Nc5nc6ccccc6n51)c1c(O)c5c(c(CC=C(C)C)c1OC432)OC(C)(CCC=C(C)C)C=C5 (stereo not shown) [Compound 10] | 38.3 (≈ 50.6 µM) | 7.76 |  |  |  |  |  | 1.24 ± 0.73 | 39.36* % | 25.12 ± 4.64 | 20.32 ± 1.22 |  | showed anti-proliferative effect | showed anti-proliferative effect
6 | COC(=O)/C(C)=C\CC12OC(C)(C)C3CC(C1=O)C1C4=C(Nc5nccn51)c1c(OCCNCCO)c5c(c(CC=C(C)C)c1OC432)OC(C)(CCC=C(C)C)C=C5 (stereo not shown) [Compound 35] |  |  |  |  |  |  |  | 0.78 ± 0.33 | 59.25** % | 26.86 ± 1.81 | 20.08 ± 1.92 | statistically significant |  | 
7 | COC(=O)/C(C)=C\CC12OC(C)(C)C3CC(C=C4C(=O)c5c(OC(=O)CCC(=O)N6CCN(C)CC6)c6c(c(CC=C(C)C)c5OC431)OC(C)(CCC=C(C)C)C=C6)C2=O (stereo not shown) [Compound 11] |  |  |  |  |  |  |  | 1.35 ± 0.59 | 31.01* % | 26.30 ± 3.62 | 19.92 ± 1.47 |  |  | 
8 | COC(=O)/C(C)=C\CC12OC(C)(C)C3CC(C1=O)C(N1CCOCC1)C1C(=O)c4c(OC(=O)CCl)c5c(c(CC=C(C)C)c4OC132)OC(C)(CCC=C(C)C)C=C5 (stereo not shown) [Compound 13] |  |  |  |  |  |  |  | 1.06 ± 0.70 | 45** % | 27.59 ± 2.52 | 21.76 ± 1.93 |  |  | 

Now from value to compound, other results behind:

Row | IC50 [4, 6] [µg/mL] | pIC50 [5] | IC50 [4, 7] [µg/mL] | IC50 [5] [µg/mL] | IC50 ([3]; Homo sapiens, Panc-1, text value, P<0.05, read-out: IC50 (anti-proliferative effect on Panc-1)) [µg/mL] | Compound | body Weight (g) After ad. ([1]; after administration, S180 mice) [g] | body Weight (g) Before ad. ([1]; before administration, S180 mice) [g] | Tumor weight [2] [g] | Inhibition rate (%) [2] | body Weight (g) After ad. ([1]; mouse, in vivo) [g] | body Weight (g) Before ad. ([1]; mouse, in vivo) [g] | anti-tumor efficacy, statistical significance [2] | anti-proliferative effect on Panc-1 [3] | anti-proliferative effect on HT29 [4]
9 | 1.03 (≈ 1.46 µM) | 8.47 | 1.03 (≈ 1.46 µM) | 6.18 |  | COC(=O)/C(C)=C\CC12OC(C)(C)C3CC(C1=O)C1C4=C(Nc5nccn51)c1c(O)c5c(c(CC=C(C)C)c1OC432)OC(C)(CCC=C(C)C)C=C5 (stereo not shown) [Compound 9] |  |  | 0.56 ± 0.13 | 70.21** % | 23.58 ± 1.86 | 20.53 ± 1.16 | statistically significant | showed anti-proliferative effect | showed anti-proliferative effect
10 | 14.4 (≈ 110 µM) |  |  |  |  | O=c1[nH]cc(F)c(=O)[nH]1 [Compound 5-FU, 5-fluorouracil, reference compound] |  |  | 1.18 ± 0.49 | 42.8* % | 28.55 ± 2.38 | 22.59 ± 1.46 |  |  | 
11 | 35.6 (≈ 36.9 µM) | 8.11 |  |  |  | COC(=O)/C(C)=C\CC12OC(C)(C)[C@H]3C[C@@H](C=C4C(=O)c5c(OC(=O)c6ccc(O[C@@H]7O[C@@H]8COC(C)(C)O[C@H]8[C@H](O)[C@H]7O)cc6)c6c(c(CC=C(C)C)c5OC431)OC(C)(CCC=C(C)C)C=C6)C2=O (stereo partly shown) [Compound 5] |  |  | 1.08 ± 0.63 | 45** % | 27.39 ± 2.91 | 21.53 ± 1.77 |  |  | 
12 | 3.62 (≈ 4.45 µM) | 8.31 | 3.62 (≈ 4.45 µM) | 4.73 | 3.26 (≈ 4.01 µM) | COC(=O)/C(C)=C\CC12OC(C)(C)C3CC(C1=O)C1C4=C(c5ccccc5C4=O)N(CCN)C4=C1C32Oc1c(CC=C(C)C)c2c(c(O)c14)C=CC(C)(CCC=C(C)C)O2 (stereo not shown) [Compound 22] |  |  | 0.88 ± 0.37 | 53.19** % | 25.77 ± 2.33 | 19.34 ± 0.81 | statistically significant | showed anti-proliferative effect | showed anti-proliferative effect
